Structures are written as SMILES. Read-outs that look alike come from different tables or passages of the source.

For data set [1], the system named is A549 (lung carcinoma cell line). Put plainly: MTT cytotoxicity assay, A549. Format: cell-based. The note with it: Homo sapiens, mean of four independent studies, read-out: IC50 against A549. On the procedure:
(§1) In this study, all compounds were tested for antiproliferative activity using an MTT assay with doxorubicin as a control against MCF-7 (human breast adenocarcinoma cell line), A549 (lung carcinoma cell line), HepG2 (human liver carcinoma cell line), HeLa (cervical cell line), and C6 (rat glioma cell line) cell lines. Table 1 summarizes the results of four independent studies as the mean IC50 value (half-maximum inhibitory concentration).
(§2) MTT tests were used to screen the anticancer activities of compounds 5a–i. The MTT assays were carried out as stated previously.[16],[17] The anticancer activity of the final compounds was tested on […]: A549 (lung carcinoma cell line), HeLa (cervical cell line), MCF-7 (human breast adenocarcinoma cell line), HepG2 (human liver carcinoma cell line), C6 (rat glioma cell line), and NIH3T3 […] (mouse embryo fibroblast cell line). In the MTT experiments, doxorubicin and Hoechst 33342 were employed as reference drugs.

Data set [2] relates to MCF-7 (human breast adenocarcinoma cell line). The experiment in a line: MTT cytotoxicity assay, MCF-7. Type of data set: cell-based. The note with it: mean of four independent studies, read-out: IC50 against MCF-7. On the procedure:
as §1, §2
On the technique in general: Tetrazolium dyes change colour on reduction, which living cells bring about.

The subject of data set [3] is C6 (rat glioma cell line). The experiment in a line: MTT cytotoxicity assay, C6. The note with it: mean of four independent studies, read-out: IC50 against C6. Type of data set: cell-based. On the procedure: as §1, §2
The subject of data set [4] is HepG2 (human liver carcinoma cell line). The experiment in a line: MTT cytotoxicity assay, HepG2. The note with it: mean of four independent studies, read-out: IC50 against HepG2. Type of data set: cell-based. The protocol: as §1, §2
The subject of data set [5] is HeLa (cervical cell line). The experiment in a line: MTT cytotoxicity assay, HeLa. Format: cell-based. The note with it: Homo sapiens, mean of four independent studies, read-out: IC50 against HeLa. On the procedure:
as §1, §2

The next data set addresses T1, human aromatase (Homo sapiens, UniProt P11511).
T1 construct: purchased BioVision
T1 sequence (P11511 1-503): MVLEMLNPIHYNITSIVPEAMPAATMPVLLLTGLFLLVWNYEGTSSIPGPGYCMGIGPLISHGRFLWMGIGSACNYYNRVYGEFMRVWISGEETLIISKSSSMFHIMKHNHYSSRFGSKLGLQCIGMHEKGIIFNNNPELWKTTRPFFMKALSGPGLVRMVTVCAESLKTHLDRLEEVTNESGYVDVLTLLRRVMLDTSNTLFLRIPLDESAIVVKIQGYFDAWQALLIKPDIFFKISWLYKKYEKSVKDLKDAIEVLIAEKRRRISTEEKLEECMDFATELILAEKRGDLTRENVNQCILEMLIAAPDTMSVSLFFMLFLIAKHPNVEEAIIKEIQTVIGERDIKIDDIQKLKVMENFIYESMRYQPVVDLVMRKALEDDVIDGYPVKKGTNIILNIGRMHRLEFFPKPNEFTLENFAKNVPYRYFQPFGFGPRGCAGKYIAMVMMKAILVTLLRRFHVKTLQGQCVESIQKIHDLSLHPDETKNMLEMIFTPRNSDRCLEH
The experiment in a line: Aromatase (CYP19A) Inhibitor Screening Kit (Fluorimetric), BioVision. The note with it: fluorimetric kit, compound dissolved in acetonitrile; read-out: IC50 aromatase inhibition. Type of data set: biochemical. From the text: An in vitro fluorescence-based test (Aromatase (CYP19A) Inhibitor Screening Kit (Fluorimetric), BioVision) was used to determine the inhibitory activity of the produced compounds against human aromatase.
The BioVision Aromatase (CYP19A) Inhibitor Screening Kit (Fluorometric) was used to carry out this experiment.

Compound `CCOc1ccc(-c2nc3ccc(-c4nnc(SCC(=O)N5CCN(Cc6ccc(F)cc6)CC5)o4)cc3[nH]2)cc1` [5i, 2-((5-(2-(4-Ethoxyphenyl)-1H-benzo[d]imidazol-6-yl)-1,3,4-oxadiazol-2-yl)thio)-1-(4-(4-fluorobenzyl)piperazin-1-yl)ethan-1-one] showed a melting point of 189.9 to 191.4 °C. Also, the IC50 in data set [1] came out at 4.52 ± 0.21 µM. The IC50 in data set [2] (Homo sapiens, MCF7, MTT assay) was found to be 9.06 ± 0.311 µM. Moreover, the IC50 in data set [2] (MTT assay) came to 9.96 ± 0.312 µM. The IC50 in data set [3] was 6 ± 0.227 µM. In data set [4], the IC50 amounted to 28.7 ± 1.22 µM. In addition, in data set [5], the IC50 came to 42 ± 1.32 µM. The IC50 on human aromatase is 80.4 ± 3.12 µM.

In general, IC50 refers to the point on the concentration scale where inhibition reaches its midpoint. For orientation: melting point means the temperature, or range, at which the solid turns liquid.
